# Reference: US12545654B2 (STEMSYNERGY THERAPEUTICS, INC., priority 2020, dated 2026)
# System: N-myc protein
# Test: In-cell immunostaining assay for decrease of N-myc protein level in neuroblastoma cells
# Type: cell-based
# Settings: human neuroblastoma cell lines (Kelly, IMR32, SK-N-BE(2)); treated overnight or up to 3 days; N-myc signal normalized over total protein; read-out: Activity (EC50 for decreasing N-myc protein level)
# Experimental: Human neuroblastoma cell lines were obtained from either Millipore Sigma, St. Louis, MO (Kelly cells) or American Type Culture Collection, Manassas, VA (IMR32 and SK-N-BE(2) cells). Cells were cultured in RPMI1640 medium (Corning, New York, NY), supplemented with 10% fetal bovine serum, 100 unit/mL penicillin and 100 μg/mL streptomycin (Corning, New York, NY) at 37 degree Celsius with 5% CO2 in air atmosphere. Cells cultured in flat clear bottom, black 96-well plates (Corning, New York, NY) were treated with different concentrations of a compound of the invention, which was dissolved in the culture media (200 μL/well), overnight or up to 3 days. Cells were fixed with 4% paraformaldehyde (in Phosphate-Buffered Saline or PBS, 100 μL/well) for 30 minutes at room temperature. Cells were briefly washed three times with PBS afterwards, and then treated with PBS containing 0.1% Triton X-100 (100 μL/well) for 30 minutes at room temperature. For […], cells were further treated with PBS containing 0.01% IRDye 700DX NHS Ester (LI-COR Biosciences, Lincoln, NE. 100 μL/well) for 30 minutes at room temperature. Cells were again washed three times with PBS, and then treated with a Tris-buffered saline solution with 0.1% Tween 20 (TBST) and 5% non-fat milk (50 μL/well) for 1 hour at room temperature. Cells were then treated with TBST with 5% non-fat milk (50 μL/well) containing a mouse anti N-Myc antibody (Clone B8.4.B, 1:500 dilution, Santa Cruz Biotechnology, Santa Cruz, CA), or a combination of a rabbit anti-Histone H3 (phospho S10) antibody (Clone EPR17246, 1:10000 dilution, abcam, Cambridge, MA) and a mouse anti-Histone H3 antibody (Clone 1G1, 1:250 dilution, Santa Cruz Biotechnology, Santa Cruz, CA) overnight at 4 degree Celsius in the dark. Cells were washed three times with TBST, and then treated with TBST with 5% non-fat milk (50 μL/well) containing an IRDye 800CW donkey anti-mouse IgG antibody (1:1000 dilution, LI-COR Biosciences, Lincoln, NE) for N-myc staining, or IRDye® 800CW donkey anti-rabbit IgG and IRDye 680RD donkey anti-mouse IgG antibodies (1:1000 dilution, LI-COR Biosciences, Lincoln, NE) for Histone H3 (phospho S10) and Histone H3 staining, incubated for 1 hour at room temperature in the dark. Cells were then washed four times with TBST and the plate was scanned using an Odyssey 9120 Imaging System (LI-COR Biosciences, Lincoln, NE). Signals for N-myc, total protein, Histone H3 (phospho S10), and Histone H3 were obtained from the images using the ImageStudio software (Version 4.0.21, LI-COR Biosciences, Lincoln, NE). Normalized signals for N-myc (over total protein), and Histone H3 (phospho S10) (over Histone H3) were plotted in Prism 7 software (GraphPad Software, San Diego, CA). A four-parameter dose-response curve was fitted using a variable slope model and the EC50 was calculated in Prism 7 software (GraphPad Software, San Diego, CA).
row,Compound,EC50
1,"Cc1nc(NC(=O)C2(C(=O)Nc3cc(Cl)cc(C(F)(F)F)c3)CC2)sc1C(=O)Nc1cc(C(F)(F)F)ccc1Cl [SSTA-0251, N-(3-chloro-5-(trifluoromethyl)phenyl)-N-(5-((2-chloro-5-(trifluoromethyl)phenyl)carbamoyl)-4-methylthiazol-2-yl)cyclopropane-1,1-dicarboxamide]",0.25 to 1 µM
2,"Cc1nc(NC(=O)C2(C(=O)Nc3ccc(F)cc3Cl)CC2)sc1C(=O)Nc1cc(C(F)(F)F)ccc1Cl [SSTA-0247, N-(2-chloro-4-fluorophenyl)-N-(5-((2-chloro-5-(trifluoromethyl)phenyl)carbamoyl)-4-methylthiazol-2-yl)cyclopropane-1,1-dicarboxamide]",> 1 µM
3,"COCc1nc(NC(=O)C2(C(=O)Nc3ccc(Cl)c(F)c3)CC2)sc1C(=O)Nc1cc(C(F)(F)F)ccc1Cl [SSTA-0262, N-(4-chloro-3-fluorophenyl)-N-(5-((2-chloro-5-(trifluoromethyl)phenyl)carbamoyl)-4-(methoxymethyl)thiazol-2-yl)cyclopropane-1,1-dicarboxamide]",0.25 to 1 µM
4,"COc1c(F)cccc1NC(=O)C1(C(=O)Nc2nc(C)c(C(=O)Nc3cc(C(F)(F)F)ccc3Cl)s2)CC1 [SSTA-0240, N-(5-((2-chloro-5-(trifluoromethyl)phenyl)carbamoyl)-4-methylthiazol-2-yl)-N-(3-fluoro-2-methoxyphenyl)cyclopropane-1,1-dicarboxamide]",> 1 µM
5,"O=C(Nc1cc(C(F)(F)F)ccc1Cl)c1sc(NC(=O)C2(C(=O)Nc3ccc(F)cc3)CC2)nc1C(F)(F)F [SSTA-0217, N-(5-((2-chloro-5-(trifluoromethyl)phenyl)carbamoyl)-4-(trifluoromethyl)thiazol-2-yl)-N-(4-fluorophenyl)cyclopropane-1,1-dicarboxamide]",0.25 to 1 µM
6,O=C(Nc1ccc(Cl)c(Cl)c1)c1sc(NC(=O)C2(C(=O)Nc3ccc(F)cc3)CC2)nc1-c1ccccc1,> 1 µM
7,"Cc1nc(NC(=O)C2(C(=O)Nc3cccc(F)c3)CC2)sc1C(=O)Nc1cc(C(F)(F)F)ccc1Cl [SSTA-0171, N-(5-((2-chloro-5-(trifluoromethyl)phenyl)carbamoyl)-4-methylthiazol-2-yl)-N-(3-fluorophenyl)cyclopropane-1,1-dicarboxamide]",> 1 µM
8,"O=C(Nc1cc(C(F)(F)F)ccc1Cl)c1sc(NC(=O)C2(C(=O)Nc3cc(F)cc(C(F)(F)F)c3)CC2)nc1C1CC1 [SSTA-0264, N-(5-((2-chloro-5-(trifluoromethyl)phenyl)carbamoyl)-4-cyclopropylthiazol-2-yl)-N-(3-fluoro-5-(trifluoromethyl)phenyl)cyclopropane-1,1-dicarboxamide]",< 0.25 µM
9,"Cc1nc(NC(=O)C2(C(=O)Nc3ccc(F)cc3)CC2)oc1C(=O)Nc1ccc(Cl)c(Cl)c1 [SSTA-0191, N-(5-((3,4-dichlorophenyl)carbamoyl)-4-methyloxazol-2-yl)-N-(4-fluorophenyl)cyclopropane-1,1-dicarboxamide]",> 1 µM
10,"Cc1nc(NC(=O)C2(C(=O)Nc3ccc(F)cc3F)CC2)sc1C(=O)Nc1cc(C(F)(F)F)ccc1Cl [SSTA-0248, N-(5-((2-chloro-5-(trifluoromethyl)phenyl)carbamoyl)-4-methylthiazol-2-yl)-N-(2,4-difluorophenyl)cyclopropane-1,1-dicarboxamide]",> 1 µM
11,"O=C(Nc1ccc(Cl)c(Cl)c1)c1sc(NC(=O)C2(C(=O)Nc3ccc(F)cc3)CC2)nc1C(F)(F)F [SSTA-0194, N-(5-((3,4-dichlorophenyl)carbamoyl)-4-(trifluoromethyl)thiazol-2-yl)-N-(4-fluorophenyl)cyclopropane-1,1-dicarboxamide]",> 1 µM
12,"Cc1nc(NC(=O)C2(C(=O)Nc3cc(C(F)(F)F)ccc3Cl)CC2)sc1C(=O)Nc1cc(C(F)(F)F)ccc1Cl [SSTA-0250, N-(2-chloro-5-(trifluoromethyl)phenyl)-N-(5-((2-chloro-5-(trifluoromethyl)phenyl)carbamoyl)-4-methylthiazol-2-yl)cyclopropane-1,1-dicarboxamide]",0.25 to 1 µM
